Assay results reported in ChEMBL document CHEMBL1671649, “Mutations in three distinct loci cause resistance to peptide deformylase inhibitors in Bacillus subtilis” (2009).
Converted amounts (≈) assume the structure as drawn.

Experiments:
Type in all cases: functional
Bacillus subtilis [1] = assay: Antimicrobial activity against Bacillus subtilis harboring fmt with 295 to 639 base pair deletion mutation after 17 hrs by microtiter broth dilution method
Bacillus subtilis [2] = assay: Antimicrobial activity against Bacillus subtilis harboring folD with deletion mutation of base pair 507 to 518 after 17 hrs by microtiter broth dilution method
Bacillus subtilis [3] = assay: Antimicrobial activity against Bacillus subtilis harboring glyA with deletion mutation of base pair 661 to 663 after 17 hrs by microtiter broth dilution method
Bacillus subtilis [4] = assay: Antimicrobial activity against Bacillus subtilis harboring fmt R116P mutant after 17 hrs by microtiter broth dilution method
Bacillus subtilis [5] = assay: Antimicrobial activity against Bacillus subtilis harboring fmt G118D mutant after 17 hrs by microtiter broth dilution method
Bacillus subtilis [6] = assay: Antimicrobial activity against Bacillus subtilis harboring fmt H108R mutant after 17 hrs by microtiter broth dilution method
Bacillus subtilis [7] = assay: Antimicrobial activity against Bacillus subtilis harboring fmt P120L mutant after 17 hrs by microtiter broth dilution method
Bacillus subtilis [8] = assay: Antimicrobial activity against Bacillus subtilis harboring fmt S110P mutant after 17 hrs by microtiter broth dilution method
Bacillus subtilis [9] = assay: Antimicrobial activity against Bacillus subtilis harboring folD E17Q mutant after 17 hrs by microtiter broth dilution method
Bacillus subtilis [10] = assay: Antimicrobial activity against Bacillus subtilis harboring fmt P113L mutant after 17 hrs by microtiter broth dilution method
Bacillus subtilis [11] = assay: Antimicrobial activity against Bacillus subtilis harboring fmt with deletion mutation at base pair 119 after 17 hrs by microtiter broth dilution method
Bacillus subtilis [12] = assay: Antimicrobial activity against Bacillus subtilis harboring fmt with base pair insertion at position 745 after 17 hrs by microtiter broth dilution method
Bacillus subtilis [13] = assay: Antimicrobial activity against Bacillus subtilis harboring fmt with deletion mutation at base pair 745 after 17 hrs by microtiter broth dilution method
Bacillus subtilis [14] = assay: Antimicrobial activity against Bacillus subtilis harboring fmt AGA to TGA and R3stop mutation after 17 hrs by microtiter broth dilution method
Bacillus subtilis [15] = assay: Antimicrobial activity against Bacillus subtilis harboring folD S71Q, S72Q and L73P mutant after 17 hrs by microtiter broth dilution method
Bacillus subtilis [16] = assay: Antimicrobial activity against Bacillus subtilis harboring fmt R116C mutant after 17 hrs by microtiter broth dilution method
Bacillus subtilis [17] = assay: Antimicrobial activity against Bacillus subtilis harboring folD T184M mutant after 17 hrs by microtiter broth dilution method

Structure (SMILES): CCCCC[C@H](CC(=O)NO)C(=O)N[C@H](C(=O)N1CCC[C@H]1CO)C(C)C [ACTINONIN]
- MIC (Bacillus subtilis [1]): > 512 µg/mL
- MIC (Bacillus subtilis [2]): > 512 µg/mL
- MIC (Bacillus subtilis [3]): > 512 µg/mL
- MIC (Bacillus subtilis [4]): > 512 µg/mL
- MIC (Bacillus subtilis [5]): > 512 µg/mL
- MIC (Bacillus subtilis [6]): > 512 µg/mL
- MIC (Bacillus subtilis [7]): > 512 µg/mL
- MIC (Bacillus subtilis [8]): > 512 µg/mL
- MIC (Bacillus subtilis [9]): 192 µg/mL (≈ 498 µM)
- MIC (Bacillus subtilis [10]): 96 µg/mL (≈ 249 µM)
- MIC (Bacillus subtilis [11]): 192 µg/mL (≈ 498 µM)
- MIC (Bacillus subtilis [12]): 96 µg/mL (≈ 249 µM)
- MIC (Bacillus subtilis [13]): 96 µg/mL (≈ 249 µM)
- MIC (Bacillus subtilis [14]): 192 µg/mL (≈ 498 µM)
- MIC (Bacillus subtilis [15]): > 512 µg/mL
- MIC (Bacillus subtilis [16]): 48 µg/mL (≈ 125 µM)
- MIC (Bacillus subtilis [17]): 192 µg/mL (≈ 498 µM)
